Measurements: paper PMC6777825, “Differential scanning fluorimetric analysis of the amino-acid binding to taste receptor using a model receptor protein, the ligand-binding domain of fish T1r2a/T1r3” (PLoS ONE, 2019)
Where two headings read alike, the source gives them in different places.

Columns and labels:
[1] = target: T1, T1r2a/T1r3 full-length receptor (Oryzias latipes, UniProt A0A173M094+A0A173M0G2); design: method as in PMID 28534491; conditions: ref [11]; cited from earlier work
medaka T1r2a/T1r3LBD = medaka T1r2a/T1r3LBD (Oryzias latipes, UniProt A0A173M094+A0A173M0G2); assay: Differential scanning fluorimetry (DSF) thermal shift ligand-binding assay; design: species or system O. latipes; conditions: for ΔTm: average ± s.e.m., n = 4; for effect on thermal stability / Tm shift of T1r2a/T1r3LBD (in words): DSF, 0.1-10 mM amino acid
Procedure: The protein sample was prepared as described previously. Briefly, Drosophila S2 cells (Invitrogen) stably expressing C-terminal FLAG-tagged T1r2aLBD and T1r3LBD [11, 21] were cultured in ExpressFiveSFM (LifeTechnologies) for five days at 27 °C. The T1r2a/T1r3-LBD protein was purified from the culture medium by the use of ANTI-FLAG M2 Affinity Gel (SIGMA). The purified protein was dialyzed against the assay buffer (20 mM Tris-HCl, 300 mM NaCl, 2 mM CaCl2, pH 8.0).
The protein sample (~1 μg) was mixed with Protein Thermal Shift Dye (Applied Biosystems) and 10~10,000 μM concentration of each amino acid in 20 μL of assay buffer and loaded to a MicroAmpR Fast Optical 48-Well Reaction Plate (Applied Biosystems). Specifically, to minimize the changes of the chemical and optical condition, the amino acid solutions were prepared by the exact same buffer used for the final dialysis of the protein, followed by the re-adjustment of the pH to ~ 8.0 by addition of either NaOH or HCl, and mixed with the protein diluted with the same buffer.
Fluorescent intensity was measured by the StepOne Real-Time PCR System (Applied Biosystems). The temperature was raised from 25 °C to 99 °C with a velocity of 0.022 °C/sec. The reporter and quencher for detection were set as “ROX” and “none”, respectively. Apparent melting transition temperature (Tm) was determined by the use of the maximum of the derivatives of the melt curve (dFluorescence/dT) by Protein Thermal Shift Software version 1.3 (Applied Biosystems).
The apparent dissociation constant (Kd-app) derived from the DSF results was estimated based on Eq 1 proposed by Schellman, assuming that the unfolding of the protein is reversible: ΔTm=Tm−T0=TmT0R/ΔH^0ln(1+[L]/Kd-app) (1) where [L] is the ligand concentration; Tm and T0 are the apparent melting transition temperatures in the presence and absence of the ligand; R is the gas constant; ΔH^0 is the enthalpy of unfolding at T0, assuming that there are no significant variations under the tested conditions. If the melt curves show biphasic profiles, the second (or the right side) Tm values were adopted for calculation, as described in the Results section.
For multiple regression analyses shown in Fig 2B, the apparent Tm values determined at different ligand concentrations were fitted to Eq 1 by using KaleidaGraph (Synergy Software), assuming that the change of the dissociation constant accompanied by the Tm shift is negligible.

[2] = target: T1, T1r2a/T1r3 full-length receptor; assay: Ca2+-flux receptor response assay in Flip-In 293 cells stably expressing full-length T1r2a, T1r3 and Gα16-gust44; type: cell-based, O. latipes; conditions: for ΔRFU: average ± s.e.m.
Procedure: The Ca^2+-flux assay was performed using Flip-In 293 cell line (Life Technologies) stably expressing full-length T1r2a, T1r3, and Gα16-gust44 as described previously. The response stimulated by either 5 or 10 mM amino acid was represented asΔRFU (delta relative fluorescence unit) defined as the maximum fluorescence intensity induced by the addition of the amino acid, subtracted with that of an assay buffer in the absence of amino acid.

T1r2a/T1r3LBD = system: T1r2a/T1r3LBD; design: method as in Nuemket, Yasui, et al. [11]; conditions: ref Nuemket, Yasui, et al. [11]; read-out: FRET EC50; cited from earlier work
[3] = cited from earlier work; for pI: ref Handbook of Chemistry and Physics, CRC Press; for logKd_CW (polarity): transfer from cyclohexane to an aqueous solution, ref Radzicka & Wolfenden, Biochemistry, 27, 1664 (1988); for Es'c (steric effects) / πα (hydrophobicity) / HP (hydration potential): α-substituent group; for Es'c (steric effects) / πα (hydrophobicity): ref Akamatsu et al., J. Pharm. Sci., 83, 1026 (1994); for HP (hydration potential): ref Wolfenden et al., Biochemistry, 20, 849 (1981); for Hydropathy Index: hydrophobicity/hydrophilicity, ref Kyte & Doolittle, J. Mol. Biol., 157, 105 (1982)
[4] = Tm at 8 or 9 ligand concentrations fitted to Eq 1 (Schellman), fitted parameter ± s.e., read-out: DSF Kd-app
[5] = from ΔTm at 10 mM via Eq 1, T0 326.1 K, ΔH0 72.1 kcal mol-1, read-out: Kd-app estimated at a single ligand concentration
[6] = log 1/Kd-app, converted from S1 Table values (10 mM; L-Ala 1 mM, L-Gln 0.1 mM)
[7] = 5 mM amino acid, n = 6 (n = 12 for L-glutamine)
[8] = estimated from ΔRFU at 5 mM by Hill equation, ΔRFUmax 104.3, read-out: EC50-est
[9] = estimated from ΔRFU at 10 mM by Hill equation, ΔRFUmax 104.3, read-out: EC50-est
[10] = from response at 10 mM, log 1/EC50-est
[11] = from ΔTm at 0.1 mM via Eq 1, T0 326.1 K, ΔH0 72.1 kcal mol-1, read-out: Kd-app estimated at a single ligand concentration
[12] = from ΔTm at 1 mM via Eq 1, T0 326.1 K, ΔH0 72.1 kcal mol-1, read-out: Kd-app estimated at a single ligand concentration
[13] = read-out: Kd-app estimated at a single ligand concentration, from ΔTm at 0.1 mM via Eq 1, T0 326.1 K, ΔH0 72.1 kcal mol-1
[14] = read-out: Kd-app estimated at a single ligand concentration, from ΔTm at 1 mM via Eq 1, T0 326.1 K, ΔH0 72.1 kcal mol-1
[15] = read-out: Kd-app estimated at a single ligand concentration, from ΔTm at 10 mM via Eq 1, T0 326.1 K, ΔH0 72.1 kcal mol-1
[16] = from response at 10 mM, log 1/EC50-est, read-out: pEC50-est (converted)

T1 sequence (A0A173M0G2 entry or part of it): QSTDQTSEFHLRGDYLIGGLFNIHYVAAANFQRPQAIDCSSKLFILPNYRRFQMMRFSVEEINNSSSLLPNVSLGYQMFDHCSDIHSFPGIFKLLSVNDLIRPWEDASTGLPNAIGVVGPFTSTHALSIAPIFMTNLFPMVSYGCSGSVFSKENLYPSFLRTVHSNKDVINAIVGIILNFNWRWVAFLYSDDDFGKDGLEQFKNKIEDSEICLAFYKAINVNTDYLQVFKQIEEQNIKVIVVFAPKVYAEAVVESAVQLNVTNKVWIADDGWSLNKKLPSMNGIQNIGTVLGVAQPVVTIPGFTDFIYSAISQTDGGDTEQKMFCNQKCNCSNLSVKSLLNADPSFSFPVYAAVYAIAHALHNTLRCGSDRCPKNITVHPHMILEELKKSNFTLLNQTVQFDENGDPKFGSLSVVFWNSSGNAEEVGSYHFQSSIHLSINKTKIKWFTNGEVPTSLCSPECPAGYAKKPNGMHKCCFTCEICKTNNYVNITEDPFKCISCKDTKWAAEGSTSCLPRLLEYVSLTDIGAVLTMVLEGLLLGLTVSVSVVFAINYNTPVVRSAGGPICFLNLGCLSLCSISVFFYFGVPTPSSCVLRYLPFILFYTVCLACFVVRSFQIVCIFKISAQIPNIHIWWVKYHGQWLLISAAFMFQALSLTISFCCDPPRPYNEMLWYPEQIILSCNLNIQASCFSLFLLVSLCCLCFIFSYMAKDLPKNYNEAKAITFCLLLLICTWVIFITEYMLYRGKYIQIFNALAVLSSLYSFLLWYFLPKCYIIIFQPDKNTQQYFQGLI
T1 sequence (A0A173M094 entry or part of it): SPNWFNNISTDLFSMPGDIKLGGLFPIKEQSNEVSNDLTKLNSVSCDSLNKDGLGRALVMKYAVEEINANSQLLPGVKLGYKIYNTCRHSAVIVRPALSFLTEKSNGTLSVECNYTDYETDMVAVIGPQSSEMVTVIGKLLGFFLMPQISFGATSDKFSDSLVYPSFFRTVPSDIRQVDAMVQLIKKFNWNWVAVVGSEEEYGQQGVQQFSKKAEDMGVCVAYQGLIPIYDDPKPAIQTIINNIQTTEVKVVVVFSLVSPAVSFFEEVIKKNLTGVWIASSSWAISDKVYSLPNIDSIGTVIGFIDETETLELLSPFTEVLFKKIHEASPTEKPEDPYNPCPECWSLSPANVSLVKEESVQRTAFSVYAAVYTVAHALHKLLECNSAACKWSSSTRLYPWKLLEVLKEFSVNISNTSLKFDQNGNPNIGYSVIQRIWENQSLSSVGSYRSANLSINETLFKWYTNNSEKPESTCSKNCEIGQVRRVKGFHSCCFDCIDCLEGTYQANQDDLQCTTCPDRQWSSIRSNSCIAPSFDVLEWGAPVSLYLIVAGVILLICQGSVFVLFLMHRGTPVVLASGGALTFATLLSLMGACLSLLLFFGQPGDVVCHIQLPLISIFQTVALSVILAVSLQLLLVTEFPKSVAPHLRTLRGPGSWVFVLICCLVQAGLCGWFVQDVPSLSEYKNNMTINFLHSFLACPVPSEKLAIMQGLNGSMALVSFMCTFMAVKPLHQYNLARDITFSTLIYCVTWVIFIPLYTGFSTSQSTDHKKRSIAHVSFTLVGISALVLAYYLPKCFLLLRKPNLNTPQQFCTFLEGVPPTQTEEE
Chain of medaka T1r2a/T1r3LBD (A0A173M094 entry or part of it): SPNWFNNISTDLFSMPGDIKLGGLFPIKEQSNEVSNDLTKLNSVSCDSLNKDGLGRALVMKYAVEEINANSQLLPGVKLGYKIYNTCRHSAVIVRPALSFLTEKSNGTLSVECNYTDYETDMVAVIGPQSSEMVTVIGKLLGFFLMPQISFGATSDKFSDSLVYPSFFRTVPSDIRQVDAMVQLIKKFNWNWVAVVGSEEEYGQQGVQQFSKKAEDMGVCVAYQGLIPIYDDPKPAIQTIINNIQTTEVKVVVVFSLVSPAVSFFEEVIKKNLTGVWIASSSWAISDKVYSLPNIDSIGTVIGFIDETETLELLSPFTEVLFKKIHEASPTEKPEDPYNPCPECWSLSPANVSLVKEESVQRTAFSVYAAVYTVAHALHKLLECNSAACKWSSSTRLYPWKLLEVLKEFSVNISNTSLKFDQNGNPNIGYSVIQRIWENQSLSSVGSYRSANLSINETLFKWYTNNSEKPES
Chain of medaka T1r2a/T1r3LBD (A0A173M0G2 entry or part of it): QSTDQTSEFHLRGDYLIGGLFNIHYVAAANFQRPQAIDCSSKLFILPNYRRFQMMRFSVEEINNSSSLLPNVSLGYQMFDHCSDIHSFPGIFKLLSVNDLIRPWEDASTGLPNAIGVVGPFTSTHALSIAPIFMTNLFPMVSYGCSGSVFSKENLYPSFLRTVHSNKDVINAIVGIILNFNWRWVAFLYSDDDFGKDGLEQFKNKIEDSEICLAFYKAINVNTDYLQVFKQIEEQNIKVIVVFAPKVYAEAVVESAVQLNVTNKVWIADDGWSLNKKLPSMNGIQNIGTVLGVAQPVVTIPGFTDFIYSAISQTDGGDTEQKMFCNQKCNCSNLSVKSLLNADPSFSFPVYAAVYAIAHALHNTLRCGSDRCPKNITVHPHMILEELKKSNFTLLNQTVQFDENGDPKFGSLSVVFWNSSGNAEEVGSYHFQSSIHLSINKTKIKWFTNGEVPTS

| Structure (SMILES) | ΔTm (medaka T1r2a/T1r3LBD; 0.1 mM amino acid) | ΔTm (medaka T1r2a/T1r3LBD; 1 mM amino acid) | ΔTm (medaka T1r2a/T1r3LBD; 10 mM amino acid) | Kd (medaka T1r2a/T1r3LBD; [4]) | potency estimated from few doses (medaka T1r2a/T1r3LBD; [5]) | pKd-app (medaka T1r2a/T1r3LBD; [6]) | ΔRFU [2, 7] | ΔRFU ([2]; 10 mM amino acid, n = 6) | EC50 [2, 8] | EC50 [2, 9] | pEC50-est [2, 10] | EC50 (T1r2a/T1r3LBD) | potency estimated from few doses (medaka T1r2a/T1r3LBD; [11]) | potency estimated from few doses (medaka T1r2a/T1r3LBD; [12]) | pI [3] | logKd_CW (polarity) [3] | Es'c (steric effects) [3] | πα (hydrophobicity) [3] | HP (hydration potential) [3] | effect on thermal stability / Tm shift of T1r2a/T1r3LBD (in words) (medaka T1r2a/T1r3LBD) | other results |
| --- | --- | --- | --- | --- | --- | --- | --- | --- | --- | --- | --- | --- | --- | --- | --- | --- | --- | --- | --- | --- | --- |
| NC(=O)CCC(N)C(=O)O (stereo in doubt) [D-glutamine] | – | – | – | – | – | – | – | – | – | – | – | – | – | – | – | – | – | – | – | – | full-length receptor response (in words) [1]: significantly weak responses |
| NCC(=O)O [Gly, glycine] | -0.04 ± 0.12 K | -0.15 ± 0.07 K | 5.08 ± 0.06 K | 3570 ± 4090 µM | 2220 µM | 2.65 | 13.4 ± 3.45 | 46.2 ± 9.00 | 33800 µM | 12600 µM | 1.90 | 6180 ± 3320 µM | – | – | – | – | – | – | – | – | pEC50-est ([2]; from response at 5 mM, log 1/EC50-est): 1.47 |
| N[C@@H](CCC(=O)O)C(=O)O [L-Glu, glutamate] | 0.55 ± 0.26 K | 0.48 ± 0.14 K | 7.06 ± 0.08 K | 422 ± 211 µM | 1050 µM | 2.98 | 3.73 ± 1.63 | 30.3 ± 1.85 | – | 24400 µM | 1.61 | 1070 ± 382 µM | 488 µM | 5700 µM | 3.22 | 2.25 | -0.82 | 0.02 | -10.2 | – | – |
| N=C(N)NCCC[C@H](N)C(=O)O [L-Arg, arginine] | 0.45 ± 0.17 K | 6.98 ± 0.08 K | 11.0 ± 0.05 K | – | – | – | 68.2 ± 5.39 | 63.4 ± 9.85 | – | – | – | 190 ± 35 µM | – | – | 10.76 | 4.32 | -0.82 | -0.42 | -19.92 | thermally stabilized the protein | Kd (medaka T1r2a/T1r3LBD; DSF Kd-app, Tm at 8 or 9 ligand concentrations fitted to Eq 1 (Schellman), fitted parameter ± s.e.): 131 ± 66 µM; Kd-app fold difference compared with FRET EC50 (medaka T1r2a/T1r3LBD; Kd-app from 0.1 mM): 3.20 fold; Kd-app fold difference compared with FRET EC50 (medaka T1r2a/T1r3LBD; Kd-app from 1 mM): 0.568 fold; Kd-app fold difference compared with FRET EC50 (medaka T1r2a/T1r3LBD; Kd-app from 10 mM): 1.44 fold; Kd (medaka T1r2a/T1r3LBD; pKd-app, log 1/Kd-app, converted from S1 Table values (10 mM; L-Ala 1 mM, L-Gln 0.1 mM)): 275 µM; potency estimated from few doses (medaka T1r2a/T1r3LBD; [13]): 608 µM; potency estimated from few doses (medaka T1r2a/T1r3LBD; [14]): 108 µM; potency estimated from few doses (medaka T1r2a/T1r3LBD; [15]): 274 µM; EC50 ([2]; EC50-est, estimated from ΔRFU at 5 mM by Hill equation, ΔRFUmax 104.3): 2650 µM; EC50 ([2]; EC50-est, estimated from ΔRFU at 10 mM by Hill equation, ΔRFUmax 104.3): 6440 µM; EC50 ([2]; pEC50-est, from response at 5 mM, log 1/EC50-est): 2630 µM; EC50 ([2]; pEC50-est, from response at 10 mM, log 1/EC50-est): 6460 µM; Hydropathy Index [3]: -4.5 |
| NC(=O)CC[C@H](N)C(=O)O [L-Gln, L-glutamine] | 6.26 ± 0.06 K | 10.80 ± 0.05 K | 13.6 ± 0.02 K | 30.9 ± 5.8 µM | 119 µM | – | 104.3 ± 4.24 | 81.0 ± 4.64 | – | 2880 µM | – | 11.5 ± 3.4 µM | 14.1 µM | 29.2 µM | – | – | – | – | – | – | increase of Tm (ΔTm), second Tm (medaka T1r2a/T1r3LBD; 300 μM ligand): 8.7 ± 0.1 °C; Kd (medaka T1r2a/T1r3LBD; log 1/Kd-app, converted from S1 Table values (10 mM; L-Ala 1 mM, L-Gln 0.1 mM), read-out: pKd-app (converted)): 14.1 µM; ΔRFU ([2]; 5 mM amino acid, n = 6 (n = 12 for L-glutamine), listed as L-glutamine): 104.3; EC50 [2, 16]: 2880 µM |
| C[C@H](N)C(=O)O [L-Ala, L-alanine] | 0.41 ± 0.09 K | 6.92 ± 0.03 K | 11.1 ± 0.02 K | 54.1 ± 24.5 µM | – | – | 64.7 ± 12.8 | 90.8 ± 9.46 | 3060 µM | 1490 µM | – | 141 ± 37 µM | – | – | 6 | -1.33 | -0.2 | 0.28 | 1.94 | exhibited large Tm shifts | Kd-app fold difference compared with FRET EC50 (medaka T1r2a/T1r3LBD; Kd-app from 0.1 mM): 4.71 fold; Kd-app fold difference compared with FRET EC50 (medaka T1r2a/T1r3LBD; Kd-app from 1 mM): 0.782 fold; Kd-app fold difference compared with FRET EC50 (medaka T1r2a/T1r3LBD; Kd-app from 10 mM): 1.91 fold; potency estimated from few doses (medaka T1r2a/T1r3LBD; [13]): 664 µM; potency estimated from few doses (medaka T1r2a/T1r3LBD; [14]): 110 µM; potency estimated from few doses (medaka T1r2a/T1r3LBD; [15]): 269 µM; EC50 ([2]; from response at 5 mM, log 1/EC50-est, read-out: pEC50-est (converted)): 3090 µM; EC50 [2, 16]: 1480 µM; Hydropathy Index [3]: 1.8 |
